Reference: ChEMBL document CHEMBL3286369, “β-Secretase (BACE1)-inhibiting C-methylrotenoids from Abronia nana suspension cultures” (Bioorg Med Chem Lett, 2014)
One block for each molecule: values may come before it. Calls of active or inactive are those of the source. The calls are words filed in the database; no cut-off is given here.

Experiments:
[1] = organism: Homo sapiens; assay: Inhibition of elastase (unknown origin) up to 1 mM
[2] = organism: Homo sapiens; assay: Inhibition of chymotrypsin (unknown origin) up to 1 mM
[3] = target: T1, Beta-secretase 1 (Homo sapiens, UniProt P56817); assay: Inhibition of BACE1 (unknown origin)
[4] = target: Trypsin (Homo sapiens) (UniProt P07477+P07478+P35030); assay: Inhibition of trypsin (unknown origin) up to 1 mM; assay type: protein assay
[5] = target: T1, Beta-secretase 1; assay: Non-competitive inhibition of BACE1 (unknown origin) by Dixon plot analysis
[6] = target: Beta-secretase 1 (Mus musculus) (UniProt P56818); assay: Inhibition of BACE1 in mouse N2A cells transfected with human APP Swedish mutant assessed as amyloid beta (1-42) production at 50 uM; assay type: cell-based; parameters: scale not given: the % may be the effect or the level left
[7] = tested on: N2a; assay: Cytotoxicity against mouse N2A cells transfected with human APP Swedish mutant assessed as cell viability at 1 to 50 uM; assay type: cell-based
[8] = target: T1, Beta-secretase 1; assay: Inhibition of BACE1 (unknown origin) expressed in CHO cells coexpressing human APP gene assessed as inhibition of beta-amyloid synthesis; assay type: cell-based

T1 sequence (P56817 whole entry): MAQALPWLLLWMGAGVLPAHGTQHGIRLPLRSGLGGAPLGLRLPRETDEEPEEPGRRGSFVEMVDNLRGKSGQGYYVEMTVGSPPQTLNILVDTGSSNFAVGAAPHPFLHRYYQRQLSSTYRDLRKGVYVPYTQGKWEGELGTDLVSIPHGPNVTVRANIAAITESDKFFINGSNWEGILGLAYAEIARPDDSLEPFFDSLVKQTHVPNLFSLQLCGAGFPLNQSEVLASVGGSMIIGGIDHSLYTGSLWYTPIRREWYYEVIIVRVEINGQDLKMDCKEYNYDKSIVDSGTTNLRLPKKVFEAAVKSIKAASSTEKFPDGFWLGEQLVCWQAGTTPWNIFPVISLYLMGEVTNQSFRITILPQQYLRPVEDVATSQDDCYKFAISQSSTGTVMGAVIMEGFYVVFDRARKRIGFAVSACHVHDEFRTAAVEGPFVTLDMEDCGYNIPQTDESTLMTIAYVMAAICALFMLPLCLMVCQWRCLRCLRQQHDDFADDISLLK
Chain of Beta-secretase 1 (Mus musculus) (P56818 whole entry): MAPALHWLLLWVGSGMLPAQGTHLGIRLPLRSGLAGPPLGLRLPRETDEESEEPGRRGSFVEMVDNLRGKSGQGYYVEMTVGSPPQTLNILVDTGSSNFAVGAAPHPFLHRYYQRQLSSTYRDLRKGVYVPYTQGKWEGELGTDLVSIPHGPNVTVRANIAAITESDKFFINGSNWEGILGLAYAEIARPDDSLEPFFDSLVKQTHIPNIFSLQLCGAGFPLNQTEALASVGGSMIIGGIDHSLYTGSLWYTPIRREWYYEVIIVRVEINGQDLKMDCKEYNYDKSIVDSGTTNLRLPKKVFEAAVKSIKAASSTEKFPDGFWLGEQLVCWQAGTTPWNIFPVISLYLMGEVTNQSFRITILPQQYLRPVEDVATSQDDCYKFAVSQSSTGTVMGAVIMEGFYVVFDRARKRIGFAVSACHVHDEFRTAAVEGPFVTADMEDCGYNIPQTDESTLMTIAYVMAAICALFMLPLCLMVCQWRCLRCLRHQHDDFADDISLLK

inhibition [1]: inactive | inhibition [2]: inactive | IC50 [3]: 4.77 µM | inhibition [3]: Dose-dependent effect | inhibition [4]: inactive | Ki [5]: 5.01 µM
Structure (SMILES): COC1Oc2cc(O)ccc2-c2c1oc1cc(O)c(C)c(O)c1c2=O (centres undefined) [BOERAVINONE D]

IC50 [3]: 62.2 µM | inhibition [3]: Dose-dependent effect
Structure (SMILES): COc1cc2c(c(O)c1C)C(=O)[C@@]1(O)c3cccc(OC)c3OC[C@@H]1O2

IC50 [3]: > 3000 µM
Structure (SMILES): COc1cc2oc3c(c(=O)c2c(O)c1C)-c1ccccc1OC3OC (centres undefined)

Activity [6]: 56% | inhibition [1]: inactive | inhibition [2]: inactive | IC50 [3]: 4.24 µM | inhibition [3]: Dose-dependent effect | inhibition [4]: inactive | Ki [5]: 4.28 µM
Structure (SMILES): COc1cc2oc3c(c(=O)c2c(O)c1C)-c1ccc(O)cc1OC3O (centres undefined)
Activity [7]: Non-toxic

IC50 [3]: 3.9 µM
Structure (SMILES): O=c1oc2c(O)c(O)cc3c(=O)oc4c(O)c(O)cc1c4c23 [ELLAGIC ACID]

The next lines start with the molecule.

Structure (SMILES): O=C(OC[C@H]1O[C@@H](OC(=O)c2cc(O)c(O)c(O)c2)[C@H](OC(=O)c2cc(O)c(O)c(O)c2)[C@@H](OC(=O)c2cc(O)c(O)c(O)c2)[C@@H]1OC(=O)c1cc(O)c(O)c(O)c1)c1cc(O)c(O)c(O)c1 [PENTAGALLOYL GLUCOSE]
IC50 [3]: 3.76 µM | Ki [3]: 5.13 µM

Structure (SMILES): O=C(O[C@@H]1O[C@@H]2COC(=O)c3cc(O)c(O)c(O)c3-c3c(cc(O)c(O)c3O)C(=O)O[C@H]2[C@H](OC(=O)c2cc(O)c(O)c(O)c2)[C@H]1OC(=O)c1cc(O)c(O)c(O)c1)c1cc(O)c(O)c(O)c1 [EUGENIIN]
IC50 [3]: 3.1 µM | Ki [3]: 6.84 µM

Structure (SMILES): O=C1O[C@@H]2[C@@H](OC(=O)c3cc(O)c(O)c(O)c3-c3c1cc(O)c(O)c3O)[C@H](O)O[C@@H]1COC(=O)c3cc(O)c(O)c(O)c3-c3c(O)c(O)c4oc(=O)c5c(c(O)c(O)c6oc(=O)c3c4c65)-c3c(cc(O)c(O)c3O)C(=O)O[C@@H]21 [PUNICALAGIN]
IC50 [3]: 0.41 µM

Structure (SMILES): C=C[C@H](c1ccccc1O)c1cc(O)c(OC)cc1OC [LATIFOLIN]
IC50 [8]: 180 µM
